The text below walks through data of patent US3957785A, “Bβ-Pyrimidino-aminomethyl-10α-ergoline and 10α-methoxyergoline derivatives” (priority 1971, dated 1976).

The conditions of data set [1]: Arcamone et al. Bioch. Pharmac. 21, 2205, 1972; cited from earlier work.
In the next data set the test system is adrenalin. In words: submaximal inhibiting dosage protecting 80% of rats against adrenalin injected 8 hours after administration. The format is in vivo. The following applies: Rattus norvegicus, po; peros in rats after 8 hours; single dose of 200 mg/Kg adrenalin; read-out: ID (submaximal inhibiting dosage which protects 80% of the tested animals). The method, then: This greater stability was confirmed by the determination of the submaximal inhibiting dosage which protects 80% of the tested animals (rats) against a single dose of 200 mg/Kg of body weight of adrenalin injected 8 hours after administration of the tested compounds according to the invention.

In data set [2] the test system is lethal effects caused by adrenaline. In words: adrenolytic activity in vivo on the rat: reduction of lethal effects caused by adrenaline. Conditions: read-out: ID50 (dose reducing by 50% the lethal effects caused by adrenaline). The method, then:
The adrenolytic activity of the compounds of the invention was also determined in vivo on the rat in comparison with dihydroergotamine and nicergoline. Table 2 reports the doses in mg/kg (ID50) able to reduce by 50% the lethal effects caused by adrenaline after oral (os) and intravenous (i.v.) administration of these compounds as compared with dihydroergotamine and with nicergoline, i.e., 1,6-dimethyl-8 -(5'-bromonicotinoyloxymethyl)-10 -methoxyergoline (Br. J. Pharmac, 34, 700, 1968).

Each structure is given as a SMILES string. Where two headings read alike, the source gives them in different places.

On to `CO[C@]12C[C@@H](COC(=O)c3cncc(Br)c3)CN(C)[C@@H]1Cc1cn(C)c3cccc2c13` [nicergoline, 1,6-dimethyl-8β-(5'-bromonicotinoyloxymethyl) 10α-methoxyergoline, reference compound], for which the “metabolism in the presence of blood in vitro” value in data set [1] was “rapidly metabolized”. Further, the ED80 with adrenalin is above 20 mg/kg. Further, the ED50 in data set [2] (iv) was determined as 0.024 mg/kg; in data set [2] (po, os) it was 7 mg/kg.
